Test system: small intestinal transit
Assay: Small intestinal transit in mice, charcoal meal method
Format: in vivo
Details: reference, dose not given
Experimental: Drugs that delay the small intestinal transit time have beneficial effects on ulcer patients. The effect of the Indigofera […] extract on small intestinal transit in mice was tested using the charcoal meal method.

NC[C@H](O)c1ccc(O)c(O)c1 [Noradrenaline]
% distance traveled: 64.6 ± 9.0%
% inhibition: 35.4%

Source: US6365201B1, “Phytodrug for management of peptic ulcer and methods of preparing and using same” (National Institute for Pharmaceutical Research and …, priority 1997, dated 2002)
